# Data: US7049321B2, “Methods and pharmaceutical compositions for treatment of central and peripheral nervous system disorders and compounds useful therefor” (Israel Institute for Biological Research, priority 2002, dated 2006)
# Entries after “also recorded” stand apart in the source; their conditions may differ.
# What was measured:
# [1] = test system: ischemic rats; test: Working memory (MWM) in ischemic rats; format: in vivo, Sprague Dawley rats; settings: 0.5 mg/kg, po, chronic
# Description: Transient ischemia in rats was induced by a modification of the ischemia model (Voll et et al, Stroke, 20: 1700–1706, 1989). This was done by a bilateral carotid artery occlusion in Sprague Dawley rats: (42 male, 3 months old, weighing 270–340 g) combined with reduction in blood pressure induced by sodium nitropruside. Ischemia was induced in 21 rats whereas the other 21 rats served as sham controls. Under pentobarbital anasthesia (30 mg/kg, ip), sodium nitropruside 4.8 mg/kg/hr) was infused through a cannula implanted in the tail vein, for a period of 25 min. Five min after the initiation of the infusion, at the time when mean blood pressure was maintained at 30–60 mmHg (intial levels ˜110 mm Hg) both carotid arteries were clamped for 20 min. Immediately afterwards 1.8 mEq sodium bicarbonate solution was administerd ip in order to minimize systemic acidosis. The sham operated rats were anesthetized as the ischemic rats and were infused with saline. […] In rats subjected to ischemia, a mortality of about 30% was recorded within 24 hr after surgery. […]
# The ratio of escape latency (REL) and the ratio of path length (RPL) were calculated by the ratio of block no 2/block no 1 for each parameter. […] REL and RPL were analyzed by a 3-way ANOVA (2×2×3), with one repeated variable (weeks) and two non-repeated variables (Operation-ischemia/sham-operated and Treatment AF150(S)/DDW).
# [2] = Ex vivo brain penetration in mice (GC and binding); settings: for half-life: mice brain
# [3] = test system: Aging microcebes; test: Effects in aging microcebes; format: in vivo; settings: chronic treatment for 18 months
# Text: Aging microcebes show similar cognitive deficits and cerebral lesions to those observed in aging humans and in AD patients. Thus this is a good animal model for AD, mimicing the three major hallmarks in AD {plaques (Aβ), paired helical filaments (hyperphophorylated and aggregated τ) and cognitive dysfunction}. This model may also be used to mimic MCI conducive to AD
# [4] = Chronic oral toxicity up to 13 weeks, dog
# [5] = target: mAChR receptors, Rat Cortical (CTX) Membranes; format: binding; settings: read-out: Ki, QNB
# [6] = target: Serotonin, 5HT3 (Homo sapiens, UniProt P46098); test: Serotonin 5HT3 binding; settings: at 10^−4 M
# Chain of Serotonin, 5HT3 (P46098 24-478): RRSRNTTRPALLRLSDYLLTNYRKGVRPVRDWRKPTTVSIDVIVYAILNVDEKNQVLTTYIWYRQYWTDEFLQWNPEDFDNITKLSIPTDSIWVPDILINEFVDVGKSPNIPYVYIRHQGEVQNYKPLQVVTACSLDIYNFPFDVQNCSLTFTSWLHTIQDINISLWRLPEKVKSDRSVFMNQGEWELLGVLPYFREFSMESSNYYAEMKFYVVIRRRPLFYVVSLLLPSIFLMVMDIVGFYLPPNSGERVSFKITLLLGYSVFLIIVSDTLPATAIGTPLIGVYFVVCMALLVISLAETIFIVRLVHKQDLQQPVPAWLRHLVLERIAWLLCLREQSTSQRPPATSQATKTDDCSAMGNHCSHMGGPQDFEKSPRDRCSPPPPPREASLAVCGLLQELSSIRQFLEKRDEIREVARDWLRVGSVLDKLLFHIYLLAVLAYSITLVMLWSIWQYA
# [7] = test system: adrenergic, benzodiazepine, dopamine, GABA, glutamate, glycine, histamine, nicotinic, serotonin sites, ChAT, GAD, MAO-A, MAO-B; test: Binding panel of other receptors and enzymes (AF267B)
# [8] = test system: β-catenin; test: β-catenin stabilization in rat hippocampal neurons; format: cell-based
# Description: (§1) This study was performed in rat hippocampal primary cell cultures using the methods described by Garrido J L et al. (FASEB J 2002; 16:1982).
# [9] = pKa and free-base fraction of AF267B; settings: pH=7.35 of CSF, calculated from pKa
# [10] = test system: GSK-3β; test: GSK-3β activity in rat hippocampal neurons; format: cell-based
# Description: as §1
# [11] = target: T1, M5 mAChR (Homo sapiens, UniProt P08912); test: Arachidonic acid (AA) release, M5; format: cell-based
# T1 construct: expressed in transfected cells
# T1 sequence (P08912 whole entry): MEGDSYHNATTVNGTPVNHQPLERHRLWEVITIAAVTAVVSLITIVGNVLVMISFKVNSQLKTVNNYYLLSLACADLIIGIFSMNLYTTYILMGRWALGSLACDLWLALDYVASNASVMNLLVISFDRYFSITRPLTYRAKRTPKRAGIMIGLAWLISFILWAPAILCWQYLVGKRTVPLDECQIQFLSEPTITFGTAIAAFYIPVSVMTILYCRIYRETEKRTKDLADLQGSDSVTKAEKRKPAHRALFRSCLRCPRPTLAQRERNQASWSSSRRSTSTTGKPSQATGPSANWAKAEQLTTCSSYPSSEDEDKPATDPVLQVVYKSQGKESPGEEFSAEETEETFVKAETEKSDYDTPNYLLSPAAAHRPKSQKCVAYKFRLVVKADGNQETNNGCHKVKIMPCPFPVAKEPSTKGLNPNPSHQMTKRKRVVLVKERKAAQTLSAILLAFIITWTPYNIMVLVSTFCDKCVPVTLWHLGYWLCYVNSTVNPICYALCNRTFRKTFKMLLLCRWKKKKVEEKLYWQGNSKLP
# [12] = target: T2, M2 mAChR (Homo sapiens, UniProt P08172); test: Intracellular Ca increase in modified cell cultures, M2; format: cell-based; settings: 10^−9–10^−3M
# T2 construct: expressed in transfected cells; host or cells: 'modified cell cultures' giving a Ca increase; modification not described
# T2 sequence (P08172 whole entry): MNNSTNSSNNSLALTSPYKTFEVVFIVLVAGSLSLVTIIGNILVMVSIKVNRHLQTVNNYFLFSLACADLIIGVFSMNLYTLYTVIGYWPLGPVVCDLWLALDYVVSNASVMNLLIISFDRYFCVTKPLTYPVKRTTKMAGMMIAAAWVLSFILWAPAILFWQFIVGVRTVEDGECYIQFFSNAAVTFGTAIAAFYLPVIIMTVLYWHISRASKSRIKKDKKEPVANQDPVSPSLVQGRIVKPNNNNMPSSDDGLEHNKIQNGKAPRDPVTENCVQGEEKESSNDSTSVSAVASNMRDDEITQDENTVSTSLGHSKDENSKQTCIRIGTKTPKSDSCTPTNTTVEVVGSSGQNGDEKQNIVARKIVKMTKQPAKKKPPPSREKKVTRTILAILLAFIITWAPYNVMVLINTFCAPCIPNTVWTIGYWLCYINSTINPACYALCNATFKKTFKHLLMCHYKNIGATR
# [13] = target: CYP2C9 (Homo sapiens, UniProt P11712); test: Cytochrome P450 inhibition, CYP2C9; format: in vitro ADME; settings: up to 10 μM
# Chain of CYP2C9 (P11712 whole entry): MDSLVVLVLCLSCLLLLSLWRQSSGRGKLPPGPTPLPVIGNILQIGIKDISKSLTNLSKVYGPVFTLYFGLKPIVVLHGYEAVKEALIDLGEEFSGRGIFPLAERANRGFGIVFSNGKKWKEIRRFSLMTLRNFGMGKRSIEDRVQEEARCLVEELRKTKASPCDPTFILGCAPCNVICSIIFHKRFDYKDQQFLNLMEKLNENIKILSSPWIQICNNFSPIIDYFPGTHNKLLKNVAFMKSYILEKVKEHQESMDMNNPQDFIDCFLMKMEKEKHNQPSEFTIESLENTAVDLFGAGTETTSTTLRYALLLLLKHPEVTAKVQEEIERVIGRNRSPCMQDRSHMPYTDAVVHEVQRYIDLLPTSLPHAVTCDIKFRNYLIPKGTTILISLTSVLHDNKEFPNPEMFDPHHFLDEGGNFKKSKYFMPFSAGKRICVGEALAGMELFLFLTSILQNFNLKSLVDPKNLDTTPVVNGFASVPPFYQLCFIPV
# Description: Cytochrome P450 activity can be an indicator for potential drug-drug interactions. AF292 was evaluated in a microtiter plate assay for P450 inhibition.
# [14] = test system: Caco-2 monolayers; test: Caco-2 cell permeability; format: in vitro ADME, human
# Description: (§2) This test is used to determine intestinal permeability of tested compounds. Caco-2 cells, when grown on semipermeable filters, spontaneously differentiate in culture to form confluent monolayers which both structurally and functionally resemble the small intestinal epithelium. Because of this property they are useful as an in vitro model for the study of drug absorption and metabolism during absorption in the intestinal mucosa. Caco-2 monolayers were grown to confluence on collagen-coated, microporous, polycarbonate membranes in 12 well plates and permeability of the test material was determined.
# [15] = Caco-2 cell permeability; format: in vitro ADME, human; settings: human, Caco-2; bi-directional assay; read-out: average permeability coefficient (Papp)
# Description: as §2
# [16] = target: M2 (human) (Homo sapiens, UniProt P08172); test: Binding study, M2 (human); settings: 10 μm
# Chain of M2 (human) (P08172 whole entry): as the sequence (P08172 whole entry) above
structure (smiles),measurement,setting,value
"CC1=NCC2(CCN(C)CC2)S1 [AF150(S), 2,8-Dimethyl-1-thia-3,8-diaza-spiro[4.5]dec-2-ene]",Working memory performance (REL and RPL),[1],significantly improved working memory performance
same,brain penetration time,[2]; iv,1 min
same,MRT,"[2]; mouse, in vivo, 100 μmole/kg",50 min
same,half-life,"[2]; mouse, in vivo, iv, T1/2, first phase",21 min
same,half-life,"[2]; mouse, in vivo, iv, T1/2, second phase",53 min
same,Astrogliosis and inflammation,[3],decreased astrogliosis and inflammation
same,Cognitive and behavioral impairments,[3],improved the cognitive and behavioral impairments
same,"Hyperphosphorylated τ, aggregated τ neurons, paired helical filaments",[3],decreased hyperphosphorylated τ proteins
"CC[C@@H]1SC2(CCN(C)CC2)NC1=O [AF267B, (S)-2-ethyl-8-methyl-1-thia-4,8-diaza-spiro[4.5]decan-3-one]",NOAEL,"[4]; beagle, dog, in vivo, po",6 to 9 mg/kg/day
same,Dose at which effects are seen,[4]; dog,> 9 mg/kg
same,ECG changes,[4]; up to 13 weeks oral,no changes in the ECG
same,Ki,[5],49.6 ± 9 µM
same,inhibition at 100 µM,[6],51.3%
same,Binding to panel,[7],no binding at all
same,soluble β-catenin level,[8]; 1 μM,100%
same,nuclear β-catenin vs control,"[8]; 1 μM, Aβ1–40 (5 μM)",140%
same,soluble β-catenin level,[8]; 10 μM,300%
same,soluble β-catenin level,[8]; 100 μM,350%
same,Aβ-induced degradation of soluble β-catenin,"[8]; 100 μM, Aβ1–40 (5 μM)",this degradation was prevented
same,% of compound in free base form,[9],26.2%
same,GSK-3β activity vs. control in presence of Aβ fibrils,"[10]; 10 μM, Aβ fibrils (10 μM) alone 370%",150%
same,Decrease of GSK-3β activity,[10]; 100 μm,60%
"CC[C@@H]1SC2(CCNCC2)NC1=O [AF292, (S)-2-Ethyl-1-thia-4,8-diaza-spiro[4.5]decan-3-one]","AA release, M5 mAChR, agonist activity",[11],"inactive as an agonist; also recorded: PI, AA: M5 mAChR - no effect as agonist"
same,Agonist activity at M2,[12],inactive as an agonist; also recorded: M2 mAChR - no effects as agonist
same,Inhibition of CYP2C9,[13],did not induce significant inhibition
same,Absorption potential ranking,[14],high absorption potential
same,Papp,[15],17.4 ×10⁻⁶ cm/s
same,"Binding, %",[16],61%
